Results taken from PubChem BioAssay (NCI).
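How tested: cells in 96-well plates exposed to compound for 48 hours at five concentrations. Definition used: TGI = concentration required for complete inhibition of growth.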

Key:
Experiment in all cases: NCI-60 cell line screen, 48 h
IGROV1 ovarian = system: IGROV1 ovarian
UACC-257 melanoma = system: UACC-257 melanoma
A498 renal = system: A498 renal
SN12C renal = system: SN12C renal
EKVX NSCLC = system: EKVX NSCLC
SNB-75 CNS = system: SNB-75 CNS
KM12 colon = system: KM12 colon
TK-10 renal = system: TK-10 renal
MALME-3M melanoma = system: MALME-3M melanoma
NCI/ADR-RES ovarian = system: NCI/ADR-RES ovarian
HCC-2998 colon = system: HCC-2998 colon
SNB-19 CNS = system: SNB-19 CNS
OVCAR-5 ovarian = system: OVCAR-5 ovarian
SF-295 CNS = system: SF-295 CNS
LOX IMVI melanoma = system: LOX IMVI melanoma
MDA-MB-231 breast = system: MDA-MB-231 breast
NCI-H522 lung = system: NCI-H522 lung
HCT-116 colon = system: HCT-116 colon
BT-549 breast = system: BT-549 breast
SK-MEL-5 melanoma = system: SK-MEL-5 melanoma

Row | SMILES | TGI (IGROV1 ovarian) [µM] | TGI (UACC-257 melanoma) [µM] | TGI (A498 renal) [µM] | TGI (SN12C renal) [µM] | TGI (EKVX NSCLC) [µM] | TGI (SNB-75 CNS) [µM] | TGI (KM12 colon) [µM] | TGI (TK-10 renal) [µM] | TGI (MALME-3M melanoma) [µM] | TGI (NCI/ADR-RES ovarian) [µM] | TGI (HCC-2998 colon) [µM] | TGI (SNB-19 CNS) [µM] | TGI (OVCAR-5 ovarian) [µM] | TGI (SF-295 CNS) [µM] | TGI (LOX IMVI melanoma) [µM] | TGI (MDA-MB-231 breast) [µM] | TGI (NCI-H522 lung) [µM] | TGI (HCT-116 colon) [µM] | TGI (BT-549 breast) [µM] | TGI (SK-MEL-5 melanoma) [µM]
1 | O=C(O)CCC(NC(=O)c1ccc(OCc2nc3cc(C(F)(F)F)ccc3nc2-c2ccccc2)cc1)C(=O)O (configuration not stated) | > 100 | > 100 | > 100 | > 100 | > 100 | > 100 | > 100 | > 100 | > 100 | > 100 | > 100 | > 100 | > 100 | > 100 | > 100 | > 100 | > 100 | > 100 | – | –
2 | S=c1nc2sc3c(c2c(Nc2ccc(Cl)cc2)[nH]1)CCCC3 | > 100 | > 100 | > 100 | > 100 | > 100 | – | > 100 | > 100 | > 100 | – | > 100 | > 100 | > 100 | > 100 | > 100 | > 100 | > 100 | > 100 | > 100 | > 100
3 | CC(=O)Nc1oc(C)c(C)c1S(=O)(=O)c1ccc(Cl)cc1 | > 100 | > 100 | > 100 | – | > 100 | > 100 | > 100 | > 100 | > 100 | > 100 | > 100 | > 100 | > 100 | > 100 | – | – | > 100 | > 100 | 89.3 | 76.6
4 | S=C1NCCN1 | > 100 | > 100 | – | > 100 | > 100 | > 100 | > 100 | > 100 | > 100 | – | – | > 100 | > 100 | > 100 | > 100 | – | > 100 | > 100 | – | > 100
5 | COc1cc2c(c(OC)c1O)-c1ccc(SC)c(=O)cc1C(NC(C)=O)CC2 (configuration not stated) | > 100 | > 100 | 30.9 | > 100 | > 100 | – | – | > 100 | > 100 | – | > 100 | > 100 | > 100 | 0.0868 | > 100 | – | – | 0.252 | – | 0.0361
6 | CC1=CC(=O)[C@@H](O)[C@]2(C)[C@H]3[C@@]4(O)OC[C@]35[C@H]([C@@H](C)[C@H]4O)[C@@H](OC(=O)C(C)(C)CO)C(=O)O[C@@H]5C[C@@H]12 | – | – | 5.39 | 4.5 | 15.1 | 2.11 | 0.787 | – | – | 51.3 | 1 | 0.626 | 23.3 | 1.71 | 0.0741 | – | 0.417 | 2.11 | 0.423 | 0.187
7 | O=C(CSC(=S)N1CCCCC1)Nc1nc2c(s1)CCCC2 | > 100 | 57.7 | > 100 | > 100 | – | > 100 | > 100 | > 100 | > 100 | – | > 100 | > 100 | > 100 | 79.3 | 40.6 | – | 65.7 | 32.2 | – | 32.9
8 | Cc1cc(=O)[nH]c(NNC(C#N)c2cccc(O)c2)n1 (configuration not stated) | > 100 | > 100 | – | > 100 | – | > 100 | > 100 | > 100 | > 100 | – | – | – | > 100 | > 100 | > 100 | – | > 100 | > 100 | – | > 100
9 | Cc1c(-c2ccc(O)cc2)n(CCCCCCNCCOC(=O)NCCCc2ccc(N(CCCl)CCCl)cc2)c2ccc(O)cc12 | 5.9 | 3.57 | 28.7 | 6.22 | 9.89 | 14.1 | 3.75 | 6.06 | 3.12 | – | 3.52 | 28.1 | 28.9 | 6.85 | 2.97 | 3.38 | 3.44 | 2.94 | 26.7 | 4.06
10 | CCOC(=O)c1c(SC(=O)c2ccc(C(C)(C)C)cc2)n(-c2ccccc2)c(=S)n(-c2ccccc2)c1=O | > 100 | > 100 | > 100 | > 100 | > 100 | > 100 | > 100 | > 100 | > 100 | > 100 | > 100 | > 100 | > 100 | > 100 | > 100 | > 100 | > 100 | > 100 | – | –
11 | O=C1OCN(c2ccccc2)C12CCN(Cc1ccccc1)CC2 | > 100 | 31 | – | > 100 | > 100 | 59.9 | 47.2 | > 100 | 43.8 | > 100 | 32.6 | > 100 | > 100 | 31.1 | 30.4 | 66.6 | – | > 100 | > 100 | 33.6
12 | C/C=C/C(C#N)(/C=C/c1ccccc1)OP1(=O)OC(c2ccccc2)C(C)N1C (configuration not stated) | 32.8 | 35.1 | 35.6 | 35.5 | 44.5 | 39.4 | 36.7 | 37.8 | 38.8 | – | 27.5 | 42.1 | 43.6 | 31 | 35 | 34.9 | 42.2 | 31.3 | – | 32.1
13 | COc1ccc(/C=c2/sc3n(c2=O)C(c2ccccc2)C2(O)CCCCC2N=3)cc1 (configuration not stated) | > 12.5 | > 12.5 | – | – | – | > 12.5 | – | > 12.5 | > 12.5 | – | > 12.5 | > 12.5 | > 12.5 | – | > 12.5 | – | > 12.5 | > 12.5 | > 12.5 | > 12.5
14 | COc1cc(-c2ccc(Br)[nH]2)[nH]c1C=NCC(C)C | 7.09 | 5.34 | 7.16 | 7.51 | 2.03 | 9.45 | 3.94 | 6.56 | 3.13 | – | 4.67 | – | 5.05 | 3.67 | – | 6.64 | – | 2.86 | – | 2.87
15 | CCCCS(=O)(=O)CCC(N)P(=O)(O)O (configuration not stated) | > 100 | > 100 | – | > 100 | > 100 | > 100 | > 100 | > 100 | > 100 | > 100 | – | > 100 | > 100 | > 100 | > 100 | – | > 100 | > 100 | > 100 | > 100
16 | O=C(Nc1ccccc1)OCCN=C1c2ccccc2C(Br)C(Br)c2ccccc21 (configuration not stated) | 10.6 | 15.6 | 18.1 | 17.5 | 19.8 | 26.5 | 18.7 | 18.5 | 16.3 | 19.4 | 20.8 | 27 | > 31.6 | > 31.6 | 13.4 | 20.6 | 8.41 | 13.3 | – | 16.9
17 | COC1(c2ccc(Cl)cc2)SC=C(C)n2c1noc2=O (configuration not stated) | > 100 | > 100 | > 100 | > 100 | > 100 | – | > 100 | – | > 100 | 94.9 | > 100 | > 100 | > 100 | > 100 | > 100 | – | > 100 | > 100 | > 100 | > 100
18 | Cc1c2n(c(=O)[nH]c1=O)C1OC(CO)C(O2)C1N=[N+]=[N-] (configuration not stated) | > 100 | > 100 | > 100 | > 100 | > 100 | > 100 | > 100 | > 100 | – | – | – | > 100 | – | > 100 | > 100 | – | > 100 | > 100 | – | > 100
19 | C[n+]1c2ccccc2c(NCC(=O)O)c2ccccc21 | > 100 | > 100 | > 100 | > 100 | > 100 | > 100 | > 100 | > 100 | > 100 | – | > 100 | > 100 | > 100 | > 100 | – | – | > 100 | > 100 | – | > 100
20 | CN(C)CCNc1ccc([N+](=O)[O-])c2sc3ccccc3c(=O)c12 | 7.66 | 19.6 | – | > 100 | 25.2 | 35.6 | > 100 | > 100 | 17.9 | 54.2 | 13.1 | 43.2 | 14.6 | > 100 | – | 9.39 | 5.15 | 11.3 | 17.2 | 20.6
21 | O=[N+]([O-])c1cccc2nc3ccccc3c(NCCCCNc3c4ccccc4nc4cccc([N+](=O)[O-])c34)c12 | 2.2 | 0.682 | – | 0.38 | 2.11 | 1.83 | 0.204 | 0.0304 | 0.255 | 2.71 | 0.164 | 0.152 | 1.64 | 1.02 | 0.258 | – | 0.0639 | 0.0347 | 1.79 | 0.165
22 | CN1Cc2ccccc2S(=O)(=O)n2cccc2C1=O | > 100 | > 100 | > 100 | > 100 | > 100 | > 100 | > 100 | > 100 | – | – | – | – | > 100 | > 100 | > 100 | > 100 | > 100 | > 100 | > 100 | > 100
